Data as given in patent US11236129B2, “IL-17A binding peptides and medical uses thereof” (Dompe' Farmaceutici S.P.A., priority 2018, dated 2022).
Where two headings read alike, the source gives them in different places. Residues, ends and D or L forms follow the SMILES beside them.

What was measured:
[1] = Isoelectric point, log D and log P (SiriusT3); assay type: physicochemical; details: for IP (isoelectric point): 25±1° C., 0.15 M KCl
[2] = assay type: physicochemical; details: pH 7.8
Summary of the method: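 Peptides dissolved in phosphate buffer pH 7.8 as 10 mM stocks (more dilute for less soluble ones) and stored at 25 °C. Content measured by reversed-phase UHPLC (C18, 0.5% formic acid water/acetonitrile gradient, DAD 220-400 nm, ESI-MS ion trap) after 1:100 dilution to 100 μM, against 100 μM standards, at T0, 3 days and 1 week.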

[3] = Permeability test across stratified human corneal epithelial cells; assay type: in vitro ADME
Method: (§1) The objective of this study was to evaluate the apparent permeability coefficient (Papp) value of the peptides across stratified human corneal epithelial cells. All peptides were tested at 50 μM in duplicate.
(§2) In particular, human corneal epithelial cells (hCEPIC) were stratified on Transwell cell culture inserts (Corning, N.Y., USA). The permeation experiments were performed taking samples from receiver chambers at 5, 30, 60 minutes time points and from donor chambers at the same time points. Each aliquot collected was analyzed by HPLC instrument (Knauer) equipped with C18 Vertex Plus Column (Knauer) thermostatically controlled at 40° C. The rate (apparent permeability coefficient, Papp) of the study compounds was calculated and compared to the Papp values of the low and high permeability markers, 6-carboxyfluorescein and Rhodamine B, respectively.
(§3) The apparent permeability coefficient (Papp) was calculated according to Equation: Papp=(I/A*C0)(dM/dt)
(§4) where dM/dt is the flux (nanomoles per second) across the cell layers;
(§5) A (square centimeters) is the exposed surface area of the insert membrane;
(§6) C0 is the initial drug concentration (micromolar) in the donor compartment at t=0 (Xiang et al., Drug Metab Dispos. 2009 May; 37(5):992-8.

mouse IL-17A = molecular target: T1, mouse IL-17A (Mus musculus, UniProt Q62386); assay: Peptide-IL-17A affinity test (SPR); assay type: binding
T1 sequence (Q62386 26-158): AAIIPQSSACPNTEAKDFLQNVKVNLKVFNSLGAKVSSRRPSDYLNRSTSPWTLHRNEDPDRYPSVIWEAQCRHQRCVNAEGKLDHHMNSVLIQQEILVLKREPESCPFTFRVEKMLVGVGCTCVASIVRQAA
Method: The peptide of the prior art HAP (SEQ ID NO:1) and peptide of SEQ ID NO:2 were tested for affinity for mIL-17A, as described below. For the immobilization of mouse IL-17A protein, amine coupling chemistry was used. […] Covalent immobilization of mIL17 results in stable attachment of 3000 RU of ligand to the surface. […] The molecules were diluted at different concentrations (from 62.5 to 1000 nM) in HBS-EP buffer and injected on the sensorchip for 4 minutes and allowed to dissociate for 5 minutes. After each run, the sensorchip was regenerated by 2 M NaCl injection. Based on the sensorgrams (FIG. 1, panel A) and using the BIAevaluation software, the Scatchard analysis of the RU values at equilibrium allowed to determine an affinity constant as a function of the analyte concentration in solution (FIG. 6, panel B).

[4] = molecular target: IL-17RA/IL17RC dimerization induced by IL-17A (Homo sapiens, UniProt Q16552); assay: IL-17RA/IL17RC dimerization assay in response to IL-17A (PathHunter Cytokine Receptor Assay); assay type: cell-based; details: IL-17A at EC80; read-out: IC50 in IL-17RA/IL7RC dimerization assay
Sequence of IL-17RA/IL17RC dimerization induced by IL-17A (Q16552 24-155): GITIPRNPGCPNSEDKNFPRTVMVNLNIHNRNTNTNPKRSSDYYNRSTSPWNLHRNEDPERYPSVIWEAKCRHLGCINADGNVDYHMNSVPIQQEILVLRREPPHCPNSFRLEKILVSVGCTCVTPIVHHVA
Summary of the method: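 Receptor dimerization was read as chemiluminescence from complemented β-galactosidase after IL-17A at EC80 concentration for 6–16 h at 37 °C. Peptides were added 60 min before agonist, at 37 °C or room temperature, with 1% vehicle. Percent inhibition used the EC80-stimulated and vehicle wells as references.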

[5] = tested on: human corneal epithelial cells (hCEPIC); assay: Permeability test across stratified human corneal epithelial cells; assay type: in vitro ADME
Method: as §1, §2, §3, §4, §5, §6

IL-17A = molecular target: T2, IL-17A (Homo sapiens, UniProt Q16552); details: psoriasis, clinical trials; cited from earlier work
T2 construct: host or cells: psoriasis patients (endogenous IL-17A)
T2 sequence (Q16552 24-155): as above

[6] = octanol/ISA water, read-out: logP
[7] = pH 7.4, pH 7.4, octanol/ISA water, read-out: Log D (7.4)

Compound	logP ([1]; logP)	logD ([1]; pH 7.4, Log D (7.4))	solubility [2] [µM]	Papp ([3]; Permeability (Papp ± SE)) [×10⁻⁶ cm/s]	Papp ([3]; Permeability (Papp)) [×10⁻⁶ cm/s]	Kd (mouse IL-17A) [µM]	IC50 [4] [µM]	IP (isoelectric point) [1]	logP [1, 6]	logD [1, 7]	permeability compared to high permeability standard Rhodamine B (in words) [5]	patient population with severity of the disease reduced by at least 75% (PASI75) (IL-17A) [%]
CC[C@H](C)[C@H](NC(C)=O)C(=O)N[C@@H](Cc1c[nH]cn1)C(=O)N[C@H](C(=O)N[C@H](C(=O)N[C@H](C(=O)N1CCC[C@H]1C(=O)N[C@@H](C)C(=O)N[C@@H](CC(=O)O)C(=O)N[C@@H](CC(C)C)C(=O)N[C@@H](Cc1c[nH]c2ccccc12)C(=O)N[C@@H](CC(=O)O)C(=O)N[C@@H](Cc1c[nH]c2ccccc12)C(=O)N[C@H](C(=O)N[C@@H](CC(N)=O)C(=O)N[C@@H](CCCCN)C(N)=O)[C@@H](C)CC)[C@@H](C)CC)[C@@H](C)O)C(C)C [SEQ ID NO: 1, reference compound] (Ac-IHVTIPADLWDWINK-NH2)	-5.98	-3.68	> 10000	19.3	19.3	3.7	–	–	–	–	–	–
CC[C@H](C)[C@H](NC(=O)[C@H](CCC(N)=O)NC(=O)[C@@H](NC(=O)[C@H](Cc1c[nH]cn1)NC(=O)[C@@H](NC(C)=O)C(C)C)C(C)C)C(=O)N1CCC[C@H]1C(=O)N[C@@H](C)C(=O)N[C@@H](CC(=O)O)C(=O)N[C@@H](CC(C)C)C(=O)N[C@@H](Cc1c[nH]c2ccccc12)C(=O)N[C@@H](CCC(=O)O)C(=O)N[C@@H](Cc1c[nH]c2ccccc12)C(=O)N[C@H](C(=O)N[C@@H](CCCNC(=N)N)C(=O)N[C@@H](CCCNC(=N)N)C(N)=O)C(C)C [SEQ ID NO: 113] (Ac-VHVQIPADLWEWVRR-NH2)	–	–	< 50	–	76.8	–	< 0.5	8.99	-0.13	-3.47	higher permeability compared to Rhodamine B	–
CC[C@H](C)[C@H](NC(=O)[C@@H](NC(=O)[C@@H](NC(=O)[C@H](Cc1c[nH]cn1)NC(=O)[C@@H](NC(C)=O)C(C)C)C(C)C)[C@@H](C)O)C(=O)N1CCC[C@H]1C(=O)N[C@@H](CCC(N)=O)C(=O)N[C@@H](CC(=O)O)C(=O)N[C@@H](CC(C)C)C(=O)N[C@@H](Cc1c[nH]c2ccccc12)C(=O)N[C@@H](CCC(=O)O)C(=O)N[C@@H](Cc1c[nH]c2ccccc12)C(=O)N[C@H](C(=O)N[C@@H](CCCNC(=N)N)C(=O)N[C@@H](CCCNC(=N)N)C(N)=O)C(C)C [SEQ ID NO: 115] (Ac-VHVTIPQDLWEWVRR-NH2)	–	–	< 50	–	68.8	–	< 0.5	8.99	-5.94	-3.91	higher permeability compared to Rhodamine B	–
ixekizumab	–	–	–	–	–	–	–	–	–	–	–	80
secukinumab	–	–	–	–	–	–	–	–	–	–	–	80
